Reference: US6319702A, “Nucleic acids encoding mutant human carboxypeptidase A enzymes” (Glaxo Wellcome, Inc., priority 1993, dated 2001)
Several values for one entry are separate records, joined by “and”; a condition that tells them apart may be missing. Identical values can stand only once. Like-named read-outs stand apart in the source and are kept apart here.

Test: Stability and biodistribution of prodrugs in vivo (HPLC of plasma and tissues)
Set-up: species or system mice (CD-1 nude; BALB/C where indicated)
Settings: 50 mg/kg i.p. or i.v., CD-1 nude mice; for remaining at 0.5 h / remaining at 2 h / concentration at 2 h / concentration at 0.5 h: mouse
[1] = LARGE INTESTINE, 30 min, 50 mg/kg
[2] = LIVER, 120 min, listed as 552W92, 50 mg/kg
[3] = kidney, 50 mg/kg, KIDNEY, 30 min, read-out: stability: percentage of material observed as intact prodrug, kidney
[4] = kidney, 50 mg/kg, KIDNEY, 120 min, read-out: stability: percentage of material observed as intact prodrug, kidney
[5] = large intestine, 50 mg/kg, LARGE INTESTINE, 30 min, read-out: stability: percentage of material observed as intact prodrug, large intestine
[6] = large intestine, 50 mg/kg, LARGE INTESTINE, 120 min, read-out: stability: percentage of material observed as intact prodrug, large intestine
[7] = liver, 50 mg/kg, LIVER, 30 min, read-out: stability: percentage of material observed as intact prodrug, liver (converted)
[8] = liver, 50 mg/kg, LIVER, 120 min, read-out: stability: percentage of material observed as intact prodrug, liver
[9] = plasma, 50 mg/kg, PLASMA, 30 min, read-out: stability: percentage of material observed as intact prodrug, plasma
[10] = plasma, 50 mg/kg, PLASMA, 120 min, read-out: concentration of prodrug in plasma
[11] = small intestine, 50 mg/kg, SMALL INTESTINE, 30 min, read-out: stability: percentage of material observed as intact prodrug, small intestine
[12] = small intestine, 50 mg/kg, SMALL INTESTINE, 120 min, read-out: stability: percentage of material observed as intact prodrug, small intestine
[13] = spleen, 50 mg/kg, SPLEEN, 30 min, read-out: stability: percentage of material observed as intact prodrug, spleen
[14] = spleen, 50 mg/kg, SPLEEN, 120 min, read-out: stability: percentage of material observed as intact prodrug, spleen
[15] = cecum, 50 mg/kg, CECUM, 30 min, read-out: stability: percentage of material observed as intact prodrug, cecum
[16] = cecum, 50 mg/kg, CECUM, 120 min, read-out: stability: percentage of material observed as intact prodrug, cecum
[17] = plasma, 50 mg/kg, PLASMA, 30 min, read-out: concentration of prodrug in plasma
[18] = plasma, 50 mg/kg, PLASMA, 120 min, read-out: stability: percentage of material observed as intact prodrug, plasma
[19] = tumor, 50 mg/kg, TUMOR, 30 min, read-out: stability: percentage of material observed as intact prodrug, tumor
[20] = tumor, 50 mg/kg, TUMOR, 120 min, read-out: stability: percentage of material observed as intact prodrug, tumor

Structure (SMILES) | concentration of prodrug in small intestine (SMALL INTESTINE, 30 min) [nmol/g] | concentration of prodrug in small intestine (SMALL INTESTINE, 120 min) [nmol/g] | remaining at 0.5 h [3] [%] | remaining at 2 h [4] [%] | remaining at 0.5 h [5] [%] | remaining at 2 h [6] [%] | remaining at 0.5 h [7] [%] | remaining at 2 h [8] [%] | remaining at 0.5 h [9] [%] | concentration at 2 h [10] [µM] | remaining at 0.5 h [11] [%] | remaining at 2 h [12] [%] | remaining at 0.5 h [13] [%] | remaining at 2 h [14] [%] | concentration of prodrug in cecum (CECUM, 30 min) [nmol/g] | concentration of prodrug in cecum (CECUM, 120 min) [nmol/g] | concentration of prodrug in kidney (KIDNEY, 30 min) [nmol/g] | concentration of prodrug in kidney (KIDNEY, 120 min) [nmol/g] | concentration of prodrug in large intestine (LARGE INTESTINE, 30 min) [nmol/g] | concentration of prodrug in large intestine (LARGE INTESTINE, 120 min) [nmol/g] | also measured
Cc1nc2ccc3ccc(CNc4ccc(C(=O)N[C@@H](CCC(=O)O)C(=O)N[C@@H](Cc5cccc6ccccc56)C(=O)O)c(F)c4)cc3c2c(=O)[nH]1 [Prodrug 3, N-(N-(2-fluoro-4-(((1,2-dihydro-3-methyl-1-oxobenzo(F)quinazolin-9-yl)methyl)amino)benzoyl)-L-glutam-1-yl)-3-(1-naphthyl)-L-alanine] | 27.7 | 1.8 | 82 | 74 | 87 | 89 | 79 | 74 | 93 | 5.1 | 10 | 1 | 95 | 89 |  |  |  |  |  |  | concentration of prodrug in kidney (KIDNEY, 30 min, 50 mg/kg): 41.7 nmol/g and 29.2 nmol/g; concentration of prodrug in large intestine [1]: 23.4 nmol/g and 14.9 nmol/g; stability: percentage of material observed as intact prodrug, large intestine [1]: 94%; concentration of prodrug in large intestine (LARGE INTESTINE, 120 min, listed as 552W92, 50 mg/kg): 1.7 nmol/g and 1.1 nmol/g; concentration of prodrug in liver (LIVER, 30 min, 50 mg/kg): 128.8 nmol/g and 135.3 nmol/g; concentration of prodrug in liver [2]: 267.9 nmol/g and 371.2 nmol/g; stability: percentage of material observed as intact prodrug, liver [2]: 90%; stability: percentage of material observed as intact prodrug, plasma (PLASMA, 120 min, listed as 552W92, 50 mg/kg): 48%; concentration (PLASMA, 120 min, listed as 552W92, 50 mg/kg, 120 min, read-out: concentration of prodrug in plasma): 2.8 µM; stability: percentage of material observed as intact prodrug, spleen (SPLEEN, 30 min, 50 mg/kg): 100%; stability: percentage of material observed as intact prodrug, spleen (SPLEEN, 120 min, listed as 552W92, 50 mg/kg): 100%
Cc1nc2ccc3ccc(CNc4ccc(C(=O)N[C@@H](CCC(=O)O)C(=O)N[C@@H](Cc5ccccc5C(=O)O)C(=O)O)c(F)c4)cc3c2c(=O)[nH]1 [Prodrug 4, N-(N-(4(((1,2-dihydro-3-methyl-1-oxobenzo(F)quinazolin-9-yl)methyl)amino)-2-fluorobenzoyl)-L-glutam-1-yl)-2-carboxy-L-phenylanine] | 188.1 | 69.1 | 100 | 99 | 100 | 100 | 99 | 98 | 100 | 1.4 | 99 | 98 | 99 |  | 6.7 | 1.3 | 94.5 | 14.5 | 25.3 | 45.4 | concentration of prodrug in liver (LIVER, 30 min): 343.4 nmol/g; concentration of prodrug in liver (LIVER, 120 min): 33.3 nmol/g; concentration of prodrug in spleen (SPLEEN, 30 min): 30.9 nmol/g; concentration of prodrug in tumor (TUMOR, 30 min): 6.7 nmol/g; concentration of prodrug in tumor (TUMOR, 120 min): 1.3 nmol/g; remaining at 0.5 h [15]: 100%; remaining at 2 h [16]: 100%; concentration at 0.5 h [17]: 71.4 µM; remaining at 2 h [18]: 99%; remaining at 0.5 h [19]: 100%; remaining at 2 h [20]: 100%
Cc1nc2ccc3ccc(CNc4ccc(C(=O)N[C@@H](CCC(=O)O)C(=O)N[C@@H](Cc5ccccc5I)C(=O)O)c(F)c4)cc3c2c(=O)[nH]1 [Prodrug 5] | 32.1 | 1.6 | 83 | 96 | 93 | 8 | 81 | 41 | 98 | 9.4 | 40 | 2 | 85 | 81 | 4.7 | 2.9 | 42.5 | 3.0 | 28.4 | 1.6 | concentration of prodrug in liver (LIVER, 30 min): 118.2 nmol/g; concentration of prodrug in liver (LIVER, 120 min): 7.5 nmol/g; concentration of prodrug in spleen (SPLEEN, 30 min): 34.3 nmol/g; concentration of prodrug in spleen (SPLEEN, 120 min): 3.2 nmol/g; concentration of prodrug in tumor (TUMOR, 30 min): 4.7 nmol/g; concentration of prodrug in tumor (TUMOR, 120 min): 2.9 nmol/g; remaining at 0.5 h [15]: 95%; remaining at 2 h [16]: 88%; concentration at 0.5 h [17]: 115 µM; remaining at 2 h [18]: 95%; remaining at 0.5 h [19]: 95%; remaining at 2 h [20]: 88%
